In assay [1] the target is T1, ITK (Homo sapiens, UniProt Q08881).
T1 construct: purchased ProQinase GmbH, Freiburg, Germany
T1 sequence (Q08881 1-620): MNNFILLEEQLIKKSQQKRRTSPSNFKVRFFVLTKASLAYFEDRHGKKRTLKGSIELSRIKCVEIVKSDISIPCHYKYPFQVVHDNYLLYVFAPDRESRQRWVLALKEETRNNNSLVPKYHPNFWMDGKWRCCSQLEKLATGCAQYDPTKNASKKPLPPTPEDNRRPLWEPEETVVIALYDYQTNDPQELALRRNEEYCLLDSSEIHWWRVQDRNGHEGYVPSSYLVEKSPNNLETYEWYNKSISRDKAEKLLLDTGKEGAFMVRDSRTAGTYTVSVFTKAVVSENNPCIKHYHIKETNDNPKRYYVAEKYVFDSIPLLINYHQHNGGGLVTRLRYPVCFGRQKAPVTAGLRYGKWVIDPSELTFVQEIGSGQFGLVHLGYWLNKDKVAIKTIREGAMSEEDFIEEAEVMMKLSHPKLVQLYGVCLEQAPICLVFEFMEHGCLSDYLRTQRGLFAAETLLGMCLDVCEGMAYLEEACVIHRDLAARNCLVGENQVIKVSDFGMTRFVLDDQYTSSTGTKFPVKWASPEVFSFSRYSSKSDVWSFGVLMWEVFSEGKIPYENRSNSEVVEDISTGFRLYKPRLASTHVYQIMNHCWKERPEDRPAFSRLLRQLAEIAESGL
Briefly: Radiometric protein kinase assay (33PanQinase, ProQinase), ITK. In kind it is biochemical. As to conditions: ATP at apparent Km (1.0 μM); for IC50: read-out: ITK enzyme assay IC50. As to the method: A radiometric protein kinase assay (^33PanQinase® Activity Assay; ProQinase GmbH, Freiburg, Germany) was used for measuring the kinase activity of the protein kinases BLK, BTK, ITK and JAK3. All kinase assays were performed in 96-well FlashPlates™ from PerkinElmer (Boston, Mass., USA) in a 50 μl reaction volume. The reaction cocktail was pipetted in four steps in the following order: • 20 μl of assay buffer (standard buffer) • 5 μl of ATP solution (in H2O) • 5 μl of test compound (in 10% DMSO) • 10 μl of substrate/10 μl of enzyme solution (premixed)
The reaction cocktails were incubated at 30° C. for 60 minutes. The reaction was stopped with 50 μl of 2% (v/v) H3PO4, plates were aspirated and washed two times with 200 μl 0.9% (w/v) NaCl. Incorporation of ^33Pi was determined with a microplate scintillation counter (Microbeta, Wallac). All assays were performed with a BeckmanCoulter/SAGIAN™ Core System.

Assay [2] concerns STAT5 phosphorylation in IL-2 stimulated YT cells. Kind of assay: Cell assay with washout of compounds (pSTAT5, YT cells, MSD). In kind it is cell-based, human. The note with it: for IC50: Homo sapiens; for retention of activity after washing: up to 4 hours after washing. As to the method: This time course experiment allows determination as to whether the pharmacological effect of the tested compounds persists over time even after the compound is removed from the cell samples.
Human YT cells were grown as described above. Cells were harvested by centrifugation and resuspended in RPMI0.5% heat-inactivated FBS. 3×10^5 cells were seeded in 60 μl per well in a round-bottomed 96 well plate (BD-Falcon, 353077).
Test compounds were dissolved in DMSO and a 1:3 dilution series (9 steps) was prepared. To generate a dose response curve, 30 μl of fourfold concentrated compound in 4% DMSO/RPMI/0.5% FBS were added to each cell sample in the 96 well plate resulting in a final DMSO concentration of 1% DMSO. Cells were incubated for one hour in a humidified incubator (37° C., 5% CO2). After incubation cells were washed twice by centrifugation and replacement of media (RPMI/0.5% FBS), with the exception of the time 0 plate. Washed cells were incubated for 30 min, 1, 2 and 4 hours in a humidified incubator (37° C., 5% CO2) prior to stimulation with IL-2. To each well 30 μl of a fourfold concentrated IL-2 solution (Recombinant human IL-2, Peprotech 200-02; 120 nM solution in RPMI) was added and incubated for 30 minutes at room temperature. Cells were lysed by adding 30 μl of 5× lysis buffer (MSD lysis buffer) and incubated for 10 minutes at 4° C. with gentle shaking.
The effect of compounds on STATS phosphorylation was determined in lysates using the MSD MULTI-SPOT® 96 4-spot phosphor-STAT5a,b whole cell lysatc kit (MesoScale Discovery, K150IGD-3) according to the manufacturer's protocol. Data were analysed in BioAssay using the nonlinear regression for a sigmoidal dose-response with a variable slope and IC50 values were determined.

Another assay addresses T2, BTK (Homo sapiens, UniProt Q06187).
T2 construct: purchased ProQinase GmbH, Freiburg, Germany
Kind of assay: Kinobeads assay with quantitative mass spectrometry, BTK. In kind it is binding. The note with it: Jurkat/Ramos lysate, read-out: BTK inhibition value (IC50). As to the method:
(§1) Selected compounds of the present invention as described in the previous examples were tested in a Kinobeads™ assay as described (WO-A 2006/134056; Bantscheff et al., 2007. Nature Bioteclmol. 25, 1035-1044).
(§2) Compounds were incubated with cell lysate aliquots (1:1 mix of Jurkat and Ramos cell lysates) for 45 minutes at 4° C. and allowed to bind to the proteins in the lysate sample. Then the Kinobeads™ affinity matrix was added to capture proteins that were not interacting with the previously added compound. After this two hour incubation step at 4° C. beads were separated from the lysate and bead bound proteins were eluted in SDS sample buffer and subsequently separated by SDS-Polyacrylamide gel electrophoresis. The gel was stained with colloidal Coomassie and stained areas of each gel lane were cut out and subjected to in-gel proteolytic digestion with trypsin. Peptides originating from the different gel areas were labeled with isobaric tagging reagents (TMT reagents, Thermofisher) as shown in Table 7. The TMT reagents are a set of multiplexed, amine-specific, stable isotope reagents that can label peptides in up to six different biological samples enabling simultaneous identification and quantitation of peptides. The combined samples were fractionated using reversed-phase chromatography at pH 11 and fractions were subsequently analyzed with a nano-flow liquid chromatography system coupled online to a tandem mass spectrometer (LC-MSMS) experiment followed by reporter ion quantification in the MSMS spectra (Ross et al., 2004. Mol. Cell. Proteomics 3(12):1154-1169; Dayon et al., 2008. Anal. Chem. 80(8):2921-2931; Thompson et al., 2003. Anal. Chem. 75(8):1895-1904). Further experimental protocols can be found in WO2006/134056 and previous publications (Bantscheff et al., 2007. Nat. Biotechnol. 25, 1035-1044; Bantscheff et al., 2011. Nat. Biotechnol. 29(3):255-265).

For another assay, the target named is T3, BLK (Homo sapiens, UniProt P51451).
T3 construct: endogenous in cells; host or cells: 1:1 mix of Jurkat and Ramos cell lysates
T3 sequence (P51451 whole entry): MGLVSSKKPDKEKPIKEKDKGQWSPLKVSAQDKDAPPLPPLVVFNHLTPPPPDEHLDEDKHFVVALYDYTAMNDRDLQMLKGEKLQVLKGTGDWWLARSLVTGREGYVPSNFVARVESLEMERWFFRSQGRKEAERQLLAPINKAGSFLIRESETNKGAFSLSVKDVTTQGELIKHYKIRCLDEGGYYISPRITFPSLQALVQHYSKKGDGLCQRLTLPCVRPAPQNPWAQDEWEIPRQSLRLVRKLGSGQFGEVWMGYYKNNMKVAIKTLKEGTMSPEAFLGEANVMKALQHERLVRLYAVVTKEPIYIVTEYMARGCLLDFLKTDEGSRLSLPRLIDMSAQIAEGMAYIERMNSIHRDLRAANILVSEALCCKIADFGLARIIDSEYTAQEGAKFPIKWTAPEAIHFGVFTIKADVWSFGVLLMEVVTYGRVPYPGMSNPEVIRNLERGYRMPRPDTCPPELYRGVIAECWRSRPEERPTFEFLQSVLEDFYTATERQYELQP
Briefly: Kinobeads assay with quantitative mass spectrometry, BLK. Format: binding. As to conditions: Jurkat/Ramos lysate, read-out: BLK inhibition value (IC50). As to the method:
as §1, §2

For assay [3], the target named is T1, ITK. Briefly: Kinobeads assay with quantitative mass spectrometry, ITK. Format: binding. The note with it: Jurkat/Ramos lysate, read-out: ITK inhibition value (IC50). As to the method: as §1, §2
Setting [4] is: 0.5 h, read-out: pSTAT5 inhibition pIC50, 30 min after washout, IL-2 stimulated YT cells, 30 min after washout (converted).
Where [5] appears, read: 2 h, read-out: pSTAT5 inhibition pIC50, 2 hours after washout, IL-2 stimulated YT cells, 2 hours after washout (converted).
Where [6] appears, read: 4 h, IL-2 stimulated YT cells, 4 hours after washout, read-out: pSTAT5 inhibition pIC50, 4 hours after washout (converted).

Like-named read-outs stand apart in the source and are kept apart here.

T2 sequence (Q06187 whole entry): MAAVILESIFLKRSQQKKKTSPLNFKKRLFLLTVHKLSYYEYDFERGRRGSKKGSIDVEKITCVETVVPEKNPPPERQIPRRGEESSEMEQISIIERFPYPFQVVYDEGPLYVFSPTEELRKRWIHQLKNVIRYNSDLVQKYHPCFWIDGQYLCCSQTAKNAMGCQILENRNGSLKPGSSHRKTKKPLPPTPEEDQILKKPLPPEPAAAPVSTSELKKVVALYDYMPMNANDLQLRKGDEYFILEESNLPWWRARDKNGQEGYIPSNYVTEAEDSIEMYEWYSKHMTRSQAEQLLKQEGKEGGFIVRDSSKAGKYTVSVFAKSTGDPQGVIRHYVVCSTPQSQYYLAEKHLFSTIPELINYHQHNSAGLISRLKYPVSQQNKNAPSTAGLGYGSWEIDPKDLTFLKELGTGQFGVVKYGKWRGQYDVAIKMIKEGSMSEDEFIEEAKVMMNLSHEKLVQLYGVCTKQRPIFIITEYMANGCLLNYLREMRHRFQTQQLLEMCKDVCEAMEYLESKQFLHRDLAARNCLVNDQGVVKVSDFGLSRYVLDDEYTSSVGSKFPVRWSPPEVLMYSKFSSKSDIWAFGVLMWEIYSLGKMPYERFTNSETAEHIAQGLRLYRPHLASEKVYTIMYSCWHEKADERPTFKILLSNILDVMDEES

Turning to `CC(=O)Nc1cccc(Cn2ncc3cnc(Nc4cnn(C)c4)nc32)c1` [compound 2, N-(3-((6-((1-methyl-1H-pyrazol-4-yl)amino)-1H-pyrazolo[3,4-d]pyrimidin-1-yl)methyl)phenyl)acetamide, reference compound], the “ITK enzyme assay IC50” value at ITK [1] was “inactive”. In addition, the “activity 30 minutes after the washing of cells” value in assay [2] (YT cells, 30 minutes after washing) was “completely lost”.

As to `C=CS(=O)(=O)Nc1cccc(Cn2ncc3cnc(Nc4cnn(C)c4)nc32)c1` [Example 4, N-(3-((6-((1-Methyl-1H-pyrazol-4-yl)amino)-1H-pyrazolo[3,4-d]pyrimidin-1-yl)methyl)phenyl)ethenesulfonamide], the IC50 at ITK [1] is 80 nM.

As to `C#CC(=O)Nc1cccc(Cn2ncc3cnc(Nc4cnn(C)c4)nc32)c1` [Example 3, N-(3-((6-((1-Methyl-1H-pyrazol-4-yl)amino)-1H-pyrazolo[3,4-d]pyrimidin-1-yl)methyl)phenyl)propiolamide], the IC50 at BTK is 12 nM; on BLK, 12 nM; on ITK [3] it was 12 nM; on ITK [1] it was 3 nM; in assay [2] (setting [4]) it was 631 nM; in assay [2] (setting [5]) it was 79.4 nM. The IC50 in assay [2] (setting [6]) was 126 nM. In assay [2] (YT cells), the “retention of activity after washing” value is listed as “retain activity for up to 4 hours after washing with some drop in activity”.

As to `C=CC(=O)Nc1cc(Cn2ncc3cnc(Nc4cnn(C)c4)nc32)ccc1F` [Example 2, […]], the IC50 stood at 72 nM at BTK, 406 nM on BLK and 818 nM on ITK [3].

For the molecule `C=CC(=O)Nc1cccc(Cn2ncc3cnc(Nc4cnn(C)c4)nc32)c1` [Example 1, N-(3-((6-((1-Methyl-1H-pyrazol-4-yl)amino)-1H-pyrazolo[3,4-d]pyrimidin-1-yl)methyl)phenyl)acrylamide], the IC50 on BTK was 12 nM; at BLK, 20 nM; at ITK [3], 86 nM; at ITK [1], 230 nM; in assay [2] (setting [4]), 200 nM; in assay [2] (setting [5]), 63.1 nM. Moreover, the IC50 in assay [2] (setting [6]) was 100 nM. Further, in assay [2] (YT cells), the “retention of activity after washing” value is recorded as “retain activity for up to 4 hours after washing with some drop in activity”.

Values taken from patent US20140323504A1, “Pyrazolo[4,3-c]Pyridine Derivatives As Kinase Inhibitors” (Cellzome Limited, priority 2011, published 2014).
